# From patent US20250129140A1, “ANTI-HCMV ANTIBODIES AND ANTIGEN-BINDING FRAGMENTS THEREOF” (ICAHN SCHOOL OF MEDICINE AT MOUNT SINAI, priority 2021, published 2025)
# Test system: CMV TB40/E infected fibroblasts
# Assay: SCID mouse gelfoam implant model of CMV proliferation
# Assay type: in vivo, SCID mice
# Conditions: fully human mAbs 4 or 18 mg/kg, ganciclovir 50 mg/kg; i.p. every three days; day ten; versus isotype control
# Experimental: At day ten post-implantation, the cells were released from the gelfoam and DNA extracted from the cells was subjected to qPCR for the HCMV UL123 and β-actin genes. The relative CMV levels cells were determined from Ct values of qPCR analysis (in triplicate) from cells collected from three mice/treatment. Statistical tests were performed using ordinary one-way ANOVA with comparisons to isotype treated cells as a control and a Dunnett's post-test; **, p<0.01; ***, p<0.001; ****, p<0.0001.
# The gelfoam was implanted subcutaneously in three mice per group. […] Treatments were administrated every three days for nine days. At day ten post-implant, the gelfoam was removed and cells were released from the gel foam by collagenase treatment. The total DNA was harvest from the cells, quantified, and subjected to qPCR for UL123 (CMV gene) and b-actin (housekeeping geen) using SYBR green to evaluate virus proliferation. The qPCR analysis was performed in triplicate from three animals to determine the Ct values for UL123 and b-actin to calculate the relative levels of CMV DNA from the gelfoam samples.
structure (smiles),measurement,value
"Nc1nc(O)c2ncn(COC(CO)CO)c2n1 [ganciclovir, reference compound]","CMV DNA levels (UL123 relative to β-actin, qPCR)",effective at decreasing CMV DNA levels
